According to PubChem BioAssay AID2060335 (Molecular Pharmacology Branch, DTP, NCI, 2025):

Tested on: DU-145 multicell spheroids with HUVEC/MSC, viability
Test: Anticancer human tumor DU-145 cell line growth inhibition [IpAb];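 also: spheroids exposed to agents for seven days before measurement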;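 as to viability, T/C: percent of DMSO vehicle control viability so 100% = untreated level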
Settings: for IC50: curve of first compound; for viability, T/C: stronger effect = lower value
Outline: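 Multi-cell spheroids of 60% tumour cells, 25% HUVEC and 15% MSC in ultra-low-attachment U-bottom wells, treated with agents combined with ipatasertib or abemaciclib. Half-log ranges top out near clinical Cmax, or 10 microM when Cmax is unknown.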

[1] = second compound 0.1 µM, first compound 0.0316 µM
[2] = second compound 0.1 µM, first compound 0.1 µM
[3] = second compound 0.316 µM, first compound 0.0316 µM
[4] = second compound 0.316 µM, first compound 0.1 µM
[5] = second compound 1 µM, first compound 0.0316 µM
[6] = second compound 1 µM, first compound 0.1 µM

Which IC50 (second compound 0.1 µM) does the source give for `CCCS(=O)(=O)Nc1ccc(F)c(C(=O)c2c[nH]c3ncc(-c4ccc(Cl)cc4)cc23)c1F` + CC(C)NCC(C(=O)N1CCN(c2ncnc3c2C(C)CC3O)CC1)c1ccc(Cl)cc1 here?
Its IC50 is greater than 10000 nM.

And the IC50 (second compound 0.316 µM)?
The IC50 was greater than 10000 nM.

And the IC50 (second compound 1 µM)?
Its IC50 is less than 31.6 nM.

And the IC50 (second compound 3.16 µM)?
The IC50 was less than 31.6 nM.

And the IC50 (second compound 10 µM)?
The IC50 was less than 31.6 nM.

What about the viability, T/C [1] of the same compound?
Its viability, T/C is 88.2%.

What about the viability, T/C [2] of the same compound?
The viability, T/C was 91.3%.

What about the viability, T/C (second compound 0.1 µM, first compound 0.316 µM) of the same compound?
The viability, T/C was 86.6%.

And the viability, T/C (second compound 0.1 µM, first compound 1 µM)?
The viability, T/C was 96.3%.

What about the viability, T/C (second compound 0.1 µM, first compound 3.16 µM) of the same compound?
The viability, T/C was 96.7%.

And the viability, T/C (second compound 0.1 µM, first compound 10 µM)?
Its viability, T/C is 68.2%.

What about the viability, T/C [3] of the same compound?
Its viability, T/C is 53.9%.

What about the viability, T/C [4] of the same compound?
The viability, T/C was 64.1%.

And the viability, T/C (second compound 0.316 µM, first compound 0.316 µM)?
The viability, T/C was 61.4%.

And the viability, T/C (second compound 0.316 µM, first compound 1 µM)?
The viability, T/C was 76.4%.

And the viability, T/C (second compound 0.316 µM, first compound 3.16 µM)?
Its viability, T/C is 66.8%.

And the viability, T/C (second compound 0.316 µM, first compound 10 µM)?
Its viability, T/C is 43.6%.

And the viability, T/C [5]?
Its viability, T/C is 33.1%.

And the viability, T/C [6]?
The viability, T/C was 31.8%.

What about the viability, T/C (second compound 1 µM, first compound 0.316 µM) of the same compound?
Its viability, T/C is 37.7%.

And the viability, T/C (second compound 1 µM, first compound 1 µM)?
Its viability, T/C is 41.2%.

And the viability, T/C (second compound 1 µM, first compound 3.16 µM)?
Its viability, T/C is 46.3%.

And the viability, T/C (second compound 1 µM, first compound 10 µM)?
The viability, T/C was 29.9%.

And the viability, T/C (second compound 3.16 µM, first compound 0.0316 µM)?
Its viability, T/C is 22.3%.

What about the viability, T/C (second compound 3.16 µM, first compound 0.1 µM) of the same compound?
Its viability, T/C is 25.9%.

And the viability, T/C (second compound 3.16 µM, first compound 0.316 µM)?
Its viability, T/C is 24.4%.

What about the viability, T/C (second compound 3.16 µM, first compound 1 µM) of the same compound?
The viability, T/C was 22.4%.

And the viability, T/C (second compound 3.16 µM, first compound 3.16 µM)?
Its viability, T/C is 23.6%.

And the viability, T/C (second compound 3.16 µM, first compound 10 µM)?
The viability, T/C was 20.3%.

What about the viability, T/C (second compound 10 µM, first compound 0.0316 µM) of the same compound?
The viability, T/C was 19.6%.

And the viability, T/C (second compound 10 µM, first compound 0.1 µM)?
Its viability, T/C is 20.1%.

And the viability, T/C (second compound 10 µM, first compound 0.316 µM)?
Its viability, T/C is 19.1%.

What about the viability, T/C (second compound 10 µM, first compound 1 µM) of the same compound?
The viability, T/C was 19.7%.

What about the viability, T/C (second compound 10 µM, first compound 3.16 µM) of the same compound?
Its viability, T/C is 18.3%.

And the viability, T/C (second compound 10 µM, first compound 10 µM)?
Its viability, T/C is 14.2%.

How did the IC50 (second compound 0.01 µM) turn out when `CC(C)n1nc(-c2ccc3oc(N)nc3c2)c2c(N)ncnc21` + CCN1CCN(Cc2ccc(Nc3ncc(F)c(-c4cc(F)c5nc(C)n(C(C)C)c5c4)n3)nc2)CC1 was run?
The IC50 was 1.9 nM.

And the IC50 (second compound 0.0316 µM)?
Its IC50 is 1.49 nM.

And the IC50 (second compound 0.1 µM)?
The IC50 was 1.46 nM.

What about the IC50 (second compound 0.316 µM) of the same compound?
Its IC50 is 1.84 nM.

And the IC50 (second compound 1 µM)?
The IC50 was 1.86 nM.

And the viability, T/C (second compound 0.01 µM, first compound 0.000316 µM)?
The viability, T/C was 97.3%.

What about the viability, T/C (second compound 0.01 µM, first compound 0.001 µM) of the same compound?
Its viability, T/C is 64.2%.

And the viability, T/C (second compound 0.01 µM, first compound 0.00316 µM)?
Its viability, T/C is 39.3%.

And the viability, T/C (second compound 0.01 µM, first compound 0.01 µM)?
The viability, T/C was 21.2%.

What about the viability, T/C (second compound 0.01 µM, first compound 0.0316 µM) of the same compound?
Its viability, T/C is 11.3%.

What about the viability, T/C (second compound 0.01 µM, first compound 0.1 µM) of the same compound?
Its viability, T/C is 9.72%.

And the viability, T/C (second compound 0.0316 µM, first compound 0.000316 µM)?
The viability, T/C was 82.2%.

And the viability, T/C (second compound 0.0316 µM, first compound 0.001 µM)?
The viability, T/C was 56%.

And the viability, T/C (second compound 0.0316 µM, first compound 0.00316 µM)?
The viability, T/C was 38.5%.

What about the viability, T/C (second compound 0.0316 µM, first compound 0.01 µM) of the same compound?
Its viability, T/C is 19.9%.

And the viability, T/C (second compound 0.0316 µM, first compound 0.0316 µM)?
Its viability, T/C is 11.7%.

What about the viability, T/C (second compound 0.0316 µM, first compound 0.1 µM) of the same compound?
Its viability, T/C is 8.9%.

And the viability, T/C (second compound 0.1 µM, first compound 0.000316 µM)?
The viability, T/C was 76.9%.

And the viability, T/C (second compound 0.1 µM, first compound 0.001 µM)?
The viability, T/C was 56.2%.

And the viability, T/C (second compound 0.1 µM, first compound 0.00316 µM)?
The viability, T/C was 36.9%.

What about the viability, T/C (second compound 0.1 µM, first compound 0.01 µM) of the same compound?
Its viability, T/C is 23.9%.

What about the viability, T/C [1] of the same compound?
Its viability, T/C is 12.9%.

What about the viability, T/C [2] of the same compound?
The viability, T/C was 9.08%.

What about the viability, T/C (second compound 0.316 µM, first compound 0.000316 µM) of the same compound?
Its viability, T/C is 69.2%.

And the viability, T/C (second compound 0.316 µM, first compound 0.001 µM)?
The viability, T/C was 58.8%.

What about the viability, T/C (second compound 0.316 µM, first compound 0.00316 µM) of the same compound?
The viability, T/C was 40.9%.

What about the viability, T/C (second compound 0.316 µM, first compound 0.01 µM) of the same compound?
The viability, T/C was 31.5%.

What about the viability, T/C [3] of the same compound?
The viability, T/C was 16%.

And the viability, T/C [4]?
The viability, T/C was 12.5%.

And the viability, T/C (second compound 1 µM, first compound 0.000316 µM)?
The viability, T/C was 60.3%.

And the viability, T/C (second compound 1 µM, first compound 0.001 µM)?
The viability, T/C was 56.5%.

And the viability, T/C (second compound 1 µM, first compound 0.00316 µM)?
The viability, T/C was 44.4%.

What about the viability, T/C (second compound 1 µM, first compound 0.01 µM) of the same compound?
Its viability, T/C is 33.8%.

What about the viability, T/C [5] of the same compound?
The viability, T/C was 25.1%.

What about the viability, T/C [6] of the same compound?
Its viability, T/C is 20.3%.

Which results are given for `CC(C)(C)c1cnc(CSc2cnc(NC(=O)C3CCNCC3)s2)o1` + CC(C)NCC(C(=O)N1CCN(c2ncnc3c2C(C)CC3O)CC1)c1ccc(Cl)cc1?
IC50 (second compound 0.1 µM): 107 nM; IC50 (second compound 0.316 µM): 81.5 nM; IC50 (second compound 1 µM): < 9.49 nM; IC50 (second compound 3.16 µM): < 9.49 nM; IC50 (second compound 10 µM): < 9.49 nM; viability, T/C (second compound 0.1 µM, first compound 0.00949 µM): 89.1%; viability, T/C (second compound 0.1 µM, first compound 0.03 µM): 92%; viability, T/C (second compound 0.1 µM, first compound 0.0949 µM): 54.7%; viability, T/C (second compound 0.1 µM, first compound 0.3 µM): 10%; viability, T/C (second compound 0.1 µM, first compound 0.949 µM): 6.37%; viability, T/C (second compound 0.1 µM, first compound 3 µM): 5.76%; viability, T/C (second compound 0.316 µM, first compound 0.00949 µM): 60.1%; viability, T/C (second compound 0.316 µM, first compound 0.03 µM): 60.2%; viability, T/C (second compound 0.316 µM, first compound 0.0949 µM): 48.5%; viability, T/C (second compound 0.316 µM, first compound 0.3 µM): 8.51%; viability, T/C (second compound 0.316 µM, first compound 0.949 µM): 6.34%; viability, T/C (second compound 0.316 µM, first compound 3 µM): 5.65%; viability, T/C (second compound 1 µM, first compound 0.00949 µM): 33.1%; viability, T/C (second compound 1 µM, first compound 0.03 µM): 38.5%; viability, T/C (second compound 1 µM, first compound 0.0949 µM): 31.7%; viability, T/C (second compound 1 µM, first compound 0.3 µM): 7.62%; viability, T/C (second compound 1 µM, first compound 0.949 µM): 5.87%; viability, T/C (second compound 1 µM, first compound 3 µM): 5.13%; viability, T/C (second compound 3.16 µM, first compound 0.00949 µM): 23.1%; viability, T/C (second compound 3.16 µM, first compound 0.03 µM): 25.1%; viability, T/C (second compound 3.16 µM, first compound 0.0949 µM): 24%; viability, T/C (second compound 3.16 µM, first compound 0.3 µM): 8.35%; viability, T/C (second compound 3.16 µM, first compound 0.949 µM): 5.85%; viability, T/C (second compound 3.16 µM, first compound 3 µM): 5.4%; viability, T/C (second compound 10 µM, first compound 0.00949 µM): 18.1%; viability, T/C (second compound 10 µM, first compound 0.03 µM): 21.6%; viability, T/C (second compound 10 µM, first compound 0.0949 µM): 15.7%; viability, T/C (second compound 10 µM, first compound 0.3 µM): 6.3%; viability, T/C (second compound 10 µM, first compound 0.949 µM): 5.1%; viability, T/C (second compound 10 µM, first compound 3 µM): 4.5%
